These compounds were tested on rabbit skeletal myofibrils (fast skeletal myofibrils) (assay: Activation of fast skeletal myofibrils (PUMA assay, AC1.4)). Settings: calcium at pCa25, AC1.4 = concentration at which the compound increased the enzymatic activity.
Assay type: biochemical
In short: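 In 12 mM PIPES pH 6.8 with 2 mM MgCl2 and 1 mM DTT, Triton-washed rabbit skeletal myofibrils were run at the pCa25 calcium level. Myosin-made ADP was recycled through a PK/LDH coupled system; NADH loss read at 340 nm.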
`CC[C@H](C)[C@H]1C(=O)Nc2ccccc2CN1/C(N)=N/C(C)=O` [Compound 113, N-((E)-amino((S)-3-((S)-sec-butyl)-2-oxo-1,2,3,5-tetrahydro-2H-benzo[e][1,4]diazepin-4-yl)methylene)acetamide] gave an AC1.4 of 0.15 µM. `CC[C@H](C)[C@H]1C(=O)Nc2ccccc2CN1c1ncccn1` [Compound 114, (S)-3-((S)-sec-butyl)-4-(pyrimidin-2-yl)-1,3,4,5-tetrahydro-2H-benzo[e][1,4]diazepin-2-one] was tested, and the AC1.4 was 0.05 µM. `CC[C@H](C)[C@H]1C(=O)Nc2ccccc2CN1c1cc(=O)n(C)cn1` [Compound 115, (S)-3-((S)-sec-butyl)-4-(1-methyl-6-oxo-1,6-dihydropyrimidin-4-yl)-1,3,4,5-tetrahydro-2H-benzo[e][1,4]diazepin-2-one] was tested, and the AC1.4 was 0.08 µM. Work on `CC[C@H](C)[C@H]1C(=O)Nc2ccccc2CN1c1nc(OC)cc(OC)n1` [Compound 116, (S)-3-((S)-sec-butyl)-4-(4,6-dimethoxypyrimidin-2-yl)-1,3,4,5-tetrahydro-2H-benzo[e][1,4]diazepin-2-one] yielded an AC1.4 of 0.05 µM. `CC[C@H](C)[C@H]1C(=O)Nc2ccccc2CN1c1nc(N)nn1C` [Compound 117, (S)-4-(3-amino-1-methyl-1H-1,2,4-triazol-5-yl)-3-((S)-sec-butyl)-1,3,4,5-tetrahydro-2H-benzo[e][1,4]diazepin-2-one] was tested, and the AC1.4 was 0.07 µM. `CC[C@H](C)[C@H]1C(=O)Nc2ccccc2CN1c1nc(N)n(C)n1` [Compound 118, (S)-4-(5-amino-1-methyl-1H-1,2,4-triazol-3-yl)-3-((S)-sec-butyl)-1,3,4,5-tetrahydro-2H-benzo[e][1,4]diazepin-2-one] gave an AC1.4 of 0.08 µM. `CC[C@H](C)[C@H]1C(=O)Nc2ccccc2CN1S(=O)(=O)CCOC` [Compound 119, (S)-3-((S)-sec-butyl)-4-((2-methoxyethyl)sulfonyl)-1,3,4,5-tetrahydro-2H-benzo[e][1,4]diazepin-2-one] gave an AC1.4 of 2.44 µM. `CC[C@H](C)[C@H]1C(=O)Nc2ccccc2CN1S(=O)(=O)NC` [Compound 120, (S)-3-((S)-sec-butyl)-N-methyl-2-oxo-1,2,3,5-tetrahydro-4H-benzo[e][1,4]diazepine-4-sulfonamide] gave an AC1.4 of 0.12 µM. `NC(=O)N1Cc2ccccc2NC(=O)[C@@H]1C1CCC1` [Compound 121, (S)-3-cyclobutyl-2-oxo-1,2,3,5-tetrahydro-4H-benzo[e][1,4]diazepine-4-carboxamide] gave an AC1.4 of 4.80 µM. Compound `Cn1cc(C(=O)N2Cc3ccccc3NC(=O)[C@@H]2C2CCC2)cn1` [Compound 122, (S)-3-cyclobutyl-4-(1-methyl-1H-pyrazole-4-carbonyl)-1,3,4,5-tetrahydro-2H-benzo[e][1,4]diazepin-2-one] has an AC1.4 of 3.16 µM. `NC(=O)N1Cc2ccccc2NC(=O)[C@@H]1C1CCCC1` [Compound 123, (S)-3-cyclopentyl-2-oxo-1,2,3,5-tetrahydro-4H-benzo[e][1,4]diazepine-4-carboxamide] was tested, and the AC1.4 was 0.35 µM. `O=C1Nc2ccccc2CN(C(=O)CCO)[C@H]1C1CCCCC1` [Compound 124, (S)-3-cyclohexyl-4-(3-hydroxypropanoyl)-1,3,4,5-tetrahydro-2H-benzo[e][1,4]diazepin-2-one] gave an AC1.4 of 0.38 µM. In the case of `NC(=O)c1ccc(C(=O)N2Cc3ccccc3NC(=O)[C@@H]2C2CCCCC2)cc1` [Compound 125, (S)-4-(3-cyclohexyl-2-oxo-2,3,4,5-tetrahydro-1H-benzo[e][1,4]diazepine-4-carbonyl)benzamide], the AC1.4 is reported as 0.29 µM. `O=C1Nc2ccccc2CN(C(=O)c2ccco2)[C@H]1C1CCCCC1` [Compound 128, (S)-3-cyclohexyl-4-(furan-2-carbonyl)-1,3,4,5-tetrahydro-2H-benzo[e][1,4]diazepin-2-one] showed an AC1.4 of 0.06 µM. With `CCC(CC)[C@H]1C(=O)Nc2ccccc2CN1C(N)=O` [Compound 129, (S)-2-oxo-3-(pentan-3-yl)-1,2,3,5-tetrahydro-4H-benzo[e][1,4]diazepine-4-carboxamide] the AC1.4 was 0.10 µM. `CC[C@H](C)[C@H]1C(=O)Nc2ccccc2CN1c1c(NC)c(=O)c1=O` [Compound 130, 3-((S)-3-((S)-sec-butyl)-2-oxo-1,2,3,5-tetrahydro-4H-benzo[e][1,4]diazepin-4-yl)-4-(methylamino)cyclobut-3-ene-1,2-dione] gave an AC1.4 of 0.06 µM. `CC[C@H](C)[C@H]1C(=O)Nc2ccccc2CN1c1c(N(C)C)c(=O)c1=O` [Compound 131, 3-((S)-3-((S)-sec-butyl)-2-oxo-1,2,3,5-tetrahydro-4H-benzo[e][1,4]diazepin-4-yl)-4-(dimethylamino)cyclobut-3-ene-1,2-dione] gave an AC1.4 of 0.02 µM. `CC[C@H](C)[C@H]1C(=O)Nc2ccccc2CN1c1c(NCCO)c(=O)c1=O` [Compound 132, 3-((S)-3-((S)-sec-butyl)-2-oxo-1,2,3,5-tetrahydro-4H-benzo[e][1,4]diazepin-4-yl)-4-((2-hydroxyethyl)amino)cyclobut-3-ene-1,2-dione] showed an AC1.4 of 0.07 µM. With `CC[C@H](C)[C@H]1C(=O)Nc2ccccc2CN1C(=O)N(C)CCN(C)C` [Compound 133, (S)-3-((S)-sec-butyl)-N-(2-(dimethylamino)ethyl)-N-methyl-2-oxo-1,2,3,5-tetrahydro-4H-benzo[e][1,4]diazepine-4-carboxamide] the AC1.4 was 0.48 µM. Compound `CC[C@H](C)[C@H]1C(=O)Nc2ccccc2CN1C(=O)N1CCC(O)CC1` [Compound 134, (S)-3-((S)-sec-butyl)-4-(4-hydroxypiperidine-1-carbonyl)-1,3,4,5-tetrahydro-2H-benzo[e][1,4]diazepin-2-one] has an AC1.4 of 0.71 µM. For `CC[C@H](C)[C@H]1C(=O)Nc2ccccc2CN1C(=O)N(CCO)C(C)C` [Compound 135, (S)-3-((S)-sec-butyl)-N-(2-hydroxyethyl)-N-isopropyl-2-oxo-1,2,3,5-tetrahydro-4H-benzo[e][1,4]diazepine-4-carboxamide], the AC1.4 was 3.72 µM. Work on `CC[C@H](C)[C@H]1C(=O)Nc2ccccc2CN1C(=O)N1C[C@@H](O)[C@@H](O)C1` [Compound 137, (S)-3-((S)-sec-butyl)-4-((3R,4S)-3,4-dihydroxypyrrolidine-1-carbonyl)-1,3,4,5-tetrahydro-2H-benzo[e][1,4]diazepin-2-one] yielded an AC1.4 of 3.35 µM. In the case of `CC[C@H](C)[C@H]1C(=O)Nc2ccccc2CN1C(=O)NC1CN(C)C1` [Compound 138, (S)-3-((S)-sec-butyl)-N-(1-methylazetidin-3-yl)-2-oxo-1,2,3,5-tetrahydro-4H-benzo[e][1,4]diazepine-4-carboxamide], the AC1.4 is reported as 0.52 µM. With `CC[C@H](C)[C@H]1C(=O)Nc2ccccc2CN1C(=O)NC1CN(C2COC2)C1` [Compound 139, (S)-3-((S)-sec-butyl)-N-(1-(oxetan-3-yl)azetidin-3-yl)-2-oxo-1,2,3,5-tetrahydro-4H-benzo[e][1,4]diazepine-4-carboxamide] the AC1.4 was 0.93 µM. In the case of `CC[C@H](C)[C@H]1C(=O)Nc2ccccc2CN1C(=O)N1C[C@@H](O)[C@H](O)C1` [Compound 140, (S)-3-((S)-sec-butyl)-4-((3R,4R)-3,4-dihydroxypyrrolidine-1-carbonyl)-1,3,4,5-tetrahydro-2H-benzo[e][1,4]diazepin-2-one], the AC1.4 is reported as 4.74 µM. `CC[C@H](C)[C@H]1C(=O)Nc2ccccc2CN1C(=O)N[C@H]1CCN(CCO)C1` [Compound 141, (S)-3-((S)-sec-butyl)-N-((S)-1-(2-hydroxyethyl)pyrrolidin-3-yl)-2-oxo-1,2,3,5-tetrahydro-4H-benzo[e][1,4]diazepine-4-carboxamide] gave an AC1.4 of 0.54 µM. In the case of `CC[C@H](C)[C@H]1C(=O)Nc2ccccc2CN1C(=O)NC1CCNCC1` [Compound 142, (S)-3-((S)-sec-butyl)-2-oxo-N-(piperidin-4-yl)-1,2,3,5-tetrahydro-4H-benzo[e][1,4]diazepine-4-carboxamide], the AC1.4 is reported as 0.36 µM. With `CC[C@H](C)[C@H]1C(=O)Nc2ccccc2CN1C(=O)N[C@@H]1CCN(C)C1` [Compound 143, (S)-3-((S)-sec-butyl)-N-((R)-1-methylpyrrolidin-3-yl)-2-oxo-1,2,3,5-tetrahydro-4H-benzo[e][1,4]diazepine-4-carboxamide] the AC1.4 was 0.35 µM. Work on `CC[C@H](C)[C@H]1C(=O)Nc2ccccc2CN1C#N` [Compound 145, (S)-3-((S)-sec-butyl)-2-oxo-1,2,3,5-tetrahydro-4H-benzo[e][1,4]diazepine-4-carbonitrile] yielded an AC1.4 of 0.50 µM. For `CC[C@H](C)[C@H]1C(=O)Nc2ccccc2CN1C(=N)NO` [Compound 146, (S)-3-((S)-sec-butyl)-N-hydroxy-2-oxo-1,2,3,5-tetrahydro-4H-benzo[e][1,4]diazepine-4-carboximidamide], the AC1.4 was 0.30 µM. `CC[C@H](C)[C@H]1C(=O)Nc2ccccc2CN1C(=O)C(C)(C)C(N)=O` [Compound 147, 3-((S)-3-((S)-sec-butyl)-2-oxo-1,2,3,5-tetrahydro-4H-benzo[e][1,4]diazepin-4-yl)-2,2-dimethyl-3-oxopropanamide] showed an AC1.4 of 2.57 µM. Work on `CC[C@H](C)[C@H]1C(=O)Nc2ccccc2CN1C(=O)C1CC(=O)N(C)C1` (stereo partly drawn) [Compound 148] yielded an AC1.4 of 0.98 µM. With `CC[C@H](C)[C@H]1C(=O)Nc2ccccc2CN1C(=O)CC(C)(C)O` [Compound 149] the AC1.4 was 2.08 µM. Work on `CC[C@H](C)[C@H]1C(=O)Nc2ccccc2CN1C(=O)c1cc2ncccc2[nH]1` [Compound 150, (S)-3-((S)-sec-butyl)-4-(1H-pyrrolo[3,2-b]pyridine-2-carbonyl)-1,3,4,5-tetrahydro-2H-benzo[e][1,4]diazepin-2-one] yielded an AC1.4 of 0.03 µM. `CC[C@H](C)[C@H]1C(=O)Nc2ccccc2CN1C(=O)c1cc2ccncc2[nH]1` [Compound 151, (S)-3-((S)-sec-butyl)-4-(1H-pyrrolo[2,3-c]pyridine-2-carbonyl)-1,3,4,5-tetrahydro-2H-benzo[e][1,4]diazepin-2-one] showed an AC1.4 of 0.06 µM. In the case of `CC[C@H](C)[C@H]1C(=O)Nc2ccccc2CN1C(=O)c1ncn[nH]1` [Compound 152, (S)-3-((S)-sec-butyl)-4-(1H-1,2,4-triazole-5-carbonyl)-1,3,4,5-tetrahydro-2H-benzo[e][1,4]diazepin-2-one], the AC1.4 is reported as 0.07 µM.

From patent publication US12441691B2 (Cytokinetics, Inc., priority 2020, dated 2025)
